Here are results for four compounds from patent publication EP0502110B1, “(HETERO) 4-ARYLMETHOXY PHENYL DIAZOLE DERIVATIVES, METHOD FOR PREPARING SAME, AND THEIR THERAPEUTICAL APPLICATIONS” (SYNTHELABO, priority 1989, dated 1991).

The target in one assay is T1, MAO-B (Rattus norvegicus, UniProt P19643).
T1 construct: en utilisant comme source d'enzyme une suspension mitochondriale du cerveau de rat; from tissue; host or cells: rat brain mitochondrial suspension
T1 sequence (P19643 1-520): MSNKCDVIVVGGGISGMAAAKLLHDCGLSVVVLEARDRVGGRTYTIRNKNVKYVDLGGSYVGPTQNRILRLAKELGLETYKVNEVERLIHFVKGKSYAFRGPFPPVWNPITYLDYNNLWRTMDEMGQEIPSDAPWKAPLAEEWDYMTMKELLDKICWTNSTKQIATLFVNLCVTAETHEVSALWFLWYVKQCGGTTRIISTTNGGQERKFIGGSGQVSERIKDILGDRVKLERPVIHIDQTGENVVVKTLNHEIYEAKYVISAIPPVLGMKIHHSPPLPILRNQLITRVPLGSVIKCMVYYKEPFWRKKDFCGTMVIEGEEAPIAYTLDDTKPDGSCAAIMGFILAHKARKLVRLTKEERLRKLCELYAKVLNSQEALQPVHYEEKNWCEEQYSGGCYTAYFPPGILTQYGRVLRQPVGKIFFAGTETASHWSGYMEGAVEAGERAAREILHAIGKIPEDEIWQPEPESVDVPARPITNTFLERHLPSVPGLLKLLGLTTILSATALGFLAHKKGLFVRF
The assay can be described thus: In vitro MAO activity assay, rat brain mitochondrial suspension, phenethylamine (PEA) as substrate. Conditions: 20 min preincubation, reaction time 10 min. In kind it is biochemical. How it is done: (§1) L'activité inhibitrice de la monoamine oxydase de ces composés a été mise en évidence par des mesures in vitro de la MAO.
(§2) Le dosage de l'activité de la MAO a été effectué en utilisant comme source d'enzyme une suspension mitochondriale du cerveau de rat. Le dosage standard consiste à préincuber l'enzyme pendant 20 minutes en absence, puis en présence des inhibiteurs. Les activités sont déterminées en utilisant la sérotonine (5 HT) et la phénéthylamine (PEA) comme substrats de la MAO-A et de la MAO-B, les temps de réaction étant de 40 minutes avec la 5 HT et de 10 minutes avec la PEA. Le mode opératoire mis en oeuvre est celui du protocole de P.C. Baker : Dev. Biol. 14, 267, 1966.
(§3) Les activités d'un certain nombre de composés selon l'invention vis-à-vis de la MAO-B et de la MAO-A sont données par leurs constantes d'inhibition Ki (MAO-B) et Ki(MAO-A) et sont rassemblées dans le tableau ci-après. TABLEAU

For another assay, the target named is T2, MAO-A (Rattus norvegicus, UniProt P21396).
T2 construct: en utilisant comme source d'enzyme une suspension mitochondriale du cerveau de rat; from tissue; host or cells: rat brain mitochondrial suspension
T2 sequence (P21396 1-526): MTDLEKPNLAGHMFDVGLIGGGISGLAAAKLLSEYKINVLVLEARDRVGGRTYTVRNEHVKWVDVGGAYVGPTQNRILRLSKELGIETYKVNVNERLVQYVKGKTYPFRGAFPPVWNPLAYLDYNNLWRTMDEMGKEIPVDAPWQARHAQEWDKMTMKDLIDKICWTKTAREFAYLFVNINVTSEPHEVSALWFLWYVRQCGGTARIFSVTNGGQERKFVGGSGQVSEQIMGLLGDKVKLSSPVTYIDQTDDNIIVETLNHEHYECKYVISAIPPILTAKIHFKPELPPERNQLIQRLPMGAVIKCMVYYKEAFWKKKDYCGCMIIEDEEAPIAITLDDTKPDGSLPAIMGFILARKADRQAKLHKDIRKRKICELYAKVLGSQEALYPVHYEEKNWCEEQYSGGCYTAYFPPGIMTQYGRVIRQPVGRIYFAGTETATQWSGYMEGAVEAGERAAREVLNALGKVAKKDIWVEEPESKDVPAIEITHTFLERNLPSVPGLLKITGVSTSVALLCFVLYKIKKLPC
The experiment in a line: In vitro MAO activity assay, rat brain mitochondrial suspension, serotonin (5 HT) as substrate. The format is biochemical. Conditions: 20 min preincubation, substrate 5 HT, reaction time 40 min. The procedure:
as §1, §2, §3

The compound `COCCn1nc(-c2ccc(OCc3ccc(Cl)cc3)cc2)oc1=O` [MD 230306, [(chloro-4 benzyloxy)-4 phényl]-5 méthoxyéthyl-3 3H oxadiazole-1,3,4 one-2] showed a Ki on MAO-B of 5 nM.
Still for that read-out and setting: the value for `COCCn1nnc(-c2ccc(OCc3cccc(Cl)c3)cc2)n1` [MD 230324, [(chloro-3 benzyloxy)-4 phényl]-5 méthoxyéthyl-2 2H tétrazole] was 35 nM.
The same measure, in the same setting: the result for `COCCn1nnc(-c2ccc(OCc3ccc(Cl)cc3)cc2)n1` [MD 230305, [(chloro-4 benzyloxy)-4 phényl]-5 méthoxyéthyl-2 2H-tétrazole] reads 184 nM.
With `COCCn1nnc(-c2ccc(OCc3ccccc3)cc2)n1` [MD 230300, (benzyloxy-4 phényl)-5 méthoxyéthyl-2 2H tétrazole], the “Ki(MAO-A)” value at MAO-A is on record as “inactif”. On MAO-B, the affinity corresponds to a Ki of 15.6 nM.

Broadly, the Ki is the equilibrium dissociation constant of an inhibitor or competing ligand from its target. High values mean weaker binding, low ones tighter binding.
